# Experimental data reported in US20220033405A1, “PHARMACEUTICAL COMPOSITION FOR PREVENTING OR TREATING CANCER CONTAINING PLK1 INHIBITOR AS ACTIVE INGREDIENT” (NATIONAL CANCER CENTER, priority 2018, published 2022).
# Experiment: Toxicity test, histopathological analysis of organs
# Format: in vivo, mouse
# Settings: 1, 5 and 10 mg/kg intraperitoneally 3 times weekly, 2 weeks
# Protocol: Compound 4 (M21) was diluted in 300 μl of PBS and intraperitoneally injected 3 times weekly at 1 mg/kg, 5 mg/kg and 10 mg/kg per body weight of a mouse, respectively, and DMSO diluted in 300 μl of PBS was intraperitoneally injected at 3% in the control. After 2 weeks, the lungs, heart, liver, kidneys, spleen and skin were removed by sacrificing mice, and fixed in a formalin solution.
compound,measurement,value
"Cn1c2nc(=O)[nH]c(=O)c-2nc2cc(C(F)(F)F)ccc21 [Compound 4, 10-methyl-7-(trifluoromethyl)-2H,3H,4H,10H-benzo[g]pteridine-2,4-dione]","histopathological analysis of lungs, heart, liver, kidneys, spleen and skin",No change by separate acute toxicity was observed
